# Experimental data taken from patent EP0665239A1, “Peptide derivatives of bactenecin endowed with antibacterial activity” (CONSIGLIO NAZIONALE DELLE RICERCHE, priority 1994, dated 1995).
# Read-outs that look alike come from different tables or passages of the source. No end group written: not given here.
# Legend:
# Format in all cases: cell-based
# [1] = system: Escherichia coli ATCC 25922
# Procedure: (§1) The antibacterial activity of the peptides of this invention was evaluated by determining the minimal inhibitory concentration (MIC) of bacterial growth.
# (§2) Each peptide was incubated in microtitration plates, at concentrations that decreased form 320 to 0.1 micrograms/ml, in which the wells contained a final volume of 0.1 ml of Mueller-Hinton broth with 3-5x10⁴ bacteria at the semi-logarithmic growth phase.
# (§3) In each experiment, the MIC of Bac5 and Bac7 were also measured, for the purpose of comparison.
# (§4) In these assays, the following bacterial strains were used: Escherichia coli ATCC 25922, Salmonella typhimurium ATCC 14028, Klebsiella pneumoniae ATCC 13883 and Enterobacter cloacae ATCC 13047.
# [2] = system: Klebsiella pneumoniae ATCC 13883
# Procedure: as §1, §2, §3, §4
# [3] = system: Enterobacter cloacae ATCC 13047
# Procedure: as §1, §2, §3, §4
# [4] = system: Salmonella typhimurium ATCC 14028
# Procedure: as §1, §2, §3, §4
# [5] = Klebsiella pneumoniae ATCC 13883, Mueller-Hinton broth, 3-5x10⁴ bacteria, 16 hours at 37° C
# [6] = Salmonella typhimurium ATCC 14028, Mueller-Hinton broth, 3-5x10⁴ bacteria, 16 hours at 37° C
# [7] = Escherichia coli ATCC 25922, Mueller-Hinton broth, 3-5x10⁴ bacteria, 16 hours at 37° C
# [8] = Enterobacter cloacae ATCC 13047, Mueller-Hinton broth, 3-5x10⁴ bacteria, 16 hours at 37° C
Sequence,MIC ([1]; ATCC 25922) [µM],"MIC ([1]; ATCC 25922, 16 h) [µg/mL]",MIC ([2]; ATCC 13883) [µM],"MIC [2, 5] [µg/mL]",MIC ([3]; ATCC 13047) [µM],"MIC ([3]; ATCC 13047, 16 h) [µg/mL]",MIC ([4]; ATCC 14028) [µM],"MIC [4, 6] [µg/mL]","MIC [1, 7] [µg/mL]","MIC ([2]; ATCC 13883, 16 h) [µg/mL]","MIC ([1]; Escherichia coli ATCC 25922, MICs of Table 1 expressed in molar terms) [µM]","MIC ([2]; Klebsiella pneumoniae ATCC 13883, MICs of Table 1 expressed in molar terms) [µM]","MIC ([3]; Enterobacter cloacae ATCC 13047, MICs of Table 1 expressed in molar terms) [µM]","MIC [3, 8] [µg/mL]","MIC ([4]; Salmonella typhimurium ATCC 14028, MICs of Table 1 expressed in molar terms) [µM]","MIC ([4]; ATCC 14028, 16 h) [µg/mL]"
RFRPPIRRPPIRPPFYPPFRPPIRP [Peptide C],0.8 to 1.6,2.5 to 5,0.8,2.5,0.8 to 1.6,2.5 to 5,0.8,2.5,–,–,–,–,–,–,–,–
"RRIRPRPPRLPRPRPRPL [Peptide D, Arg-Arg-Ile-Arg-Pro-Arg-Pro-Pro-Arg-Leu-Pro-Arg-Pro-Arg-Pro-Arg-Pro-Leu]",1.0,–,0.2 to 0.5,–,0.5 to 1.0,1.2 to 2.5,0.5,1.2,2.5,0.6 to 1.2,–,–,–,–,–,–
RRIRPRPPRLPRPRPRPLPFPRP [Peptide B],–,–,–,0.6 to 1.2,–,–,–,0.6 to 1.2,1.2 to 2.5,–,0.4 to 0.8,0.2 to 0.4,0.2 to 0.4,0.6 to 1.2,0.2 to 0.4,–
RRIRPRPPRLPRPRPRPLPFPRPGPRPIPRPLPFP [Peptide A],0.3,–,0.15 to 0.3,–,0.15,–,0.15 to 0.3,–,1.2,0.6 to 1.2,–,–,–,0.6,–,0.6 to 1.2
